Test results reported in ChEMBL document CHEMBL6115029, “Discovery of Daraxonrasib (RMC-6236), a Potent and Orally Bioavailable RAS(ON) Multi-selective, Noncovalent Tri-complex Inhibitor for the Treatment of Patients with Multiple RAS-Addicted Cancers” (J Med Chem, 2025).
Values after ≈ are worked out from the molar mass of the structure shown.

Assays:
[1] = biological target: Peptidyl-prolyl cis-trans isomerase A (Homo sapiens, UniProt P62937); experiment: Binding affinity to Avi-tagged Cyclophilin A (unknown origin) assessed as dissociation constant by SPR analysis
[2] = Inhibition of 6His-tagged KRAS G12V mutant(1 to 169 residues)/GST-tagged GMPPNP-bound BRAF RBD (155 to 229 reisudes)/Cyclophilin A (unknown origin) tri-complex protein-protein interaction incubated for 3 hrs by TR-FERT based disruption assay; design: species or system Homo sapiens
[3] = Inhibition of 6His-tagged KRAS G12D mutant(1 to 169 residues)/GST-tagged GMPPNP-bound BRAF RBD (155 to 229 reisudes)/Cyclophilin A (unknown origin) tri-complex protein-protein interaction incubated for 3 hrs by TR-FERT based disruption assay; design: species or system Homo sapiens
[4] = Inhibition of 6His-tagged KRAS G12C mutant(1 to 169 residues)/GST-tagged GMPPNP-bound BRAF RBD (155 to 229 reisudes)/Cyclophilin A (unknown origin) tri-complex protein-protein interaction incubated for 3 hrs by TR-FERT based disruption assay; design: species or system Homo sapiens
[5] = Inhibition of 6His-tagged wildtype KRAS (1 to 169 residues)/GST-tagged GMPPNP-bound BRAF RBD (155 to 229 reisudes)/Cyclophilin A (unknown origin) tri-complex protein-protein interaction incubated for 3 hrs by TR-FERT based disruption assay; design: species or system Homo sapiens
CAPAN-1 = experiment: Cytotoxicity against human CAPAN-1 cells harboring KRAS G12V mutant cultured as 2D cells assessed as reduction in cell viability incubated for 120 hrs by CellTiter-Glo luminescence assay; type: functional, cell-based; conditions: CAPAN-1, 120 h
ASPC1 = experiment: Cytotoxicity against human ASPC1 cells harboring KRAS G12D mutant cultured as 2D cells assessed as reduction in cell viability incubated for 120 hrs by CellTiter-Glo luminescence assay; type: functional, cell-based; conditions: ASPC1, 120 h
NCI-H358 = experiment: Cytotoxicity against human NCI-H358 cells harboring KRAS G12C mutant cultured as 2D cells assessed as reduction in cell viability incubated for 120 hrs by CellTiter-Glo luminescence assay; type: functional, cell-based; conditions: NCI-H358, 120 h
[6] = Inhibition of ERK1/2 phosphorylation in human CAPAN-1 cells harboring KRAS G12V mutant incubated for 4 hrs by AlphaLISA assay; type: cell-based; conditions: CAPAN-1, 4 h
[7] = Inhibition of ERK1/2 phosphorylation in human NCI-H358 cells harboring KRAS G12C mutant incubated for 4 hrs by AlphaLISA assay; type: cell-based; conditions: NCI-H358, 4 h
[8] = Inhibition of ERK1/2 phosphorylation in human ASPC1 cells harboring KRAS G12D mutant incubated for 4 hrs by AlphaLISA assay; type: cell-based; conditions: ASPC1, 4 h
[9] = Metabolic stability in mouse liver microsomes assessed as half-life at 2 uM measured upto 60 mins in presence of NADPH by LC-MS/MS analysis; type: ADME, Microsome
A-375 = experiment: Cytotoxicity against human A-375 cells assessed as reduction in cell viability incubated for 120 hrs by CellTiter-Glo luminescence assay; type: functional, cell-based; conditions: A-375, 120 h
[10] = Kinetic solubility of compound in PBS at pH 7.4 measured after 5 hrs by UV analysis; type: physicochemical; conditions: read-out: Kinetic_solubility
[11] = Apparent permeability across apical to basolateral side in human Caco-2 cells at 5 uM incubated for 2 hrs by LC-MS/MS analysis; type: ADME, cell-based
[12] = Efflux ratio of apparent permeability in human Caco-2 cells at 5 uM incubated for 2 hrs by LC-MS/MS analysis; type: ADME, cell-based
[13] = Clearance in female BALB/c mouse at 1 mg/kg, iv measured after 24 hrs by LC-MS/MS analysis; type: ADME, organism-based; conditions: in vivo
[14] = Half-life in female BALB/c mouse at 1 mg/kg, iv measured after 24 hrs by LC-MS/MS analysis; type: ADME, organism-based; conditions: in vivo
[15] = Oral bioavailability in female BALB/c mouse at 10 mg/kg measured after 24 hrs by LC-MS/MS analysis; type: ADME, organism-based; conditions: in vivo
NCI-H1975 = experiment: Cytotoxicity against human NCI-H1975 cells harboring wildtype KRAS cultured as 2D cells assessed as reduction in cell viability incubated for 120 hrs by CellTiter-Glo luminescence assay; type: functional, cell-based; conditions: NCI-H1975, 120 h
[16] = Lipophilicity, logD of compound at pH 7.4 by Agilent 1290 II uPLC analysis; type: physicochemical; conditions: buffer
[17] = Clearance in female BALB/c mouse blood at 1 mg/kg, iv measured after 24 hrs by LC-MS/MS analysis; type: ADME, organism-based
[18] = Oral bioavailability in female BALB/c mouse blood at 10 mg/kg measured after 24 hrs by LC-MS/MS analysis; type: ADME, organism-based

Peptidyl-prolyl cis-trans isomerase A, sequence (P62937 whole entry, the tested form may be a part): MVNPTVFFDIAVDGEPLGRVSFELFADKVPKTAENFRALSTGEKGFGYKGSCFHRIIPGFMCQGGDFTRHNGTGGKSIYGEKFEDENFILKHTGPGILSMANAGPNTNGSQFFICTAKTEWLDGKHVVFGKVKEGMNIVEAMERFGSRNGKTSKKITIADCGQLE

Row | Structure (SMILES) | Kd [1] [nM] | IC50 [2] [nM] | IC50 [3] [nM] | IC50 [4] [nM] | IC50 [5] [nM] | EC50 (CAPAN-1) [nM] | EC50 (ASPC1) [nM] | EC50 (NCI-H358) [nM] | EC50 [6] [nM] | EC50 [7] [nM] | EC50 [8] [nM] | half-life at 2 µM [9] [min] | EC50 (A-375) [nM] | solubility kinetic at 5 h [10] [µM] | Papp A→B at 2 h, 5 µM [11] [×10⁻⁶ cm/s] | efflux ratio at 2 h, 5 µM [12] | clearance [13] [mL/min/kg] | half-life [14] [min] | bioavailability [15] [%] | EC50 (NCI-H1975) [nM] | also measured
1 | CCn1c(-c2cccnc2[C@H](C)OC)c2c3cc(ccc31)-c1csc(n1)C[C@H](NC(=O)[C@H]1[C@@H]3COC[C@@H]31)C(=O)N1CCC[C@H](N1)C(=O)OCC(C)(C)C2 | 2420 | 84 | 346 | 51 | 139 | 69 | 92 | 30 | 11 | 26 | 146 | 26 | > 10000 | 15 (≈ 11.1 µg/mL) | 2.3 | 7.5 | 6.67 | 126 | 49 |  | 
2 | CCn1c(-c2cc(N3CCN(C)CC3)cnc2[C@H](C)OC)c2c3cc(ccc31)-c1csc(n1)C[C@H](NC(=O)[C@H]1CCO1)C(=O)N1CCC[C@H](N1)C(=O)OCC(C)(C)C2 |  | 77 | 435 | 50 | 138 | 14.2 | 45.2 | 22.3 | 2 | 10.6 | 50.1 | > 120 | 6950 | 117 (≈ 95.1 µg/mL) | 0.4 | 62 |  |  |  | 7.9 | logD [16]: 4.3
3 | CCn1c(-c2cccnc2[C@H](C)OC)c2c3cc(ccc31)-c1csc(n1)C[C@H](NC(=O)[C@H](C(C)C)N(C)C(=O)N(C)C)C(=O)N1CCC[C@H](N1)C(=O)OCC(C)(C)C2 | 468 |  | 548 | 58 | 108 | 18 |  | 6 | 3 | 11 | 42 | 5 | 5820 | 49 (≈ 39.9 µg/mL) | 0.94 | 2.9 | 55 | 42 | 0.8 | 26 | IC50 (ASPC1): 75 nM
4 | CCn1c(-c2cc(N3CC4CC(C3)N4C)cnc2[C@H](C)OC)c2c3cc(ccc31)-c1csc(n1)C[C@H](NC(=O)[C@H]1C[C@@H]1C)C(=O)N1CCC[C@H](N1)C(=O)OCC(C)(C)C2 | 23 | 71 | 272 | 53 | 116 | 2.1 | 5.3 | 1.7 | 0.5 | 2.1 | 4.4 | > 120 | 2980 | 130 (≈ 107 µg/mL) | 0.2 | 96 |  |  |  |  | logD [16]: 3.9; clearance [17]: 16.7 mL/min/kg; bioavailability [18]: 5.7%
5 | CCn1c(-c2cccnc2[C@H](C)OC)c2c3cc(ccc31)-c1csc(n1)C[C@H](NC(=O)[C@H]1CCO1)C(=O)N1CCC[C@H](N1)C(=O)OCC(C)(C)C2 | 6520 | 334 | 2310 | 224 | 628 | 615 | 1640 | 429 | 124 | 952 | > 10000 | 44 | > 10000 | 5 (≈ 3.57 µg/mL) | 3.1 | 1.7 | 3.33 | 96 | 44 | 402 | logD [16]: 4.3
